Laboratory results: ChEMBL document CHEMBL5724696, “Autophagy assay results for EUbOPEN Chemogenomics Library” (2024)

What was measured:
Format in all cases: functional, Homo sapiens
TERT-RPE1 = assay: (§1) Here: values are normalized to the negative (DMSO; defined as 0% autophagy induction) and positive (250nM Torin1; mTOR inhibitor; defined as maximal inducer of autophagy = 100%) control compounds and represented as % of autophagy induction. […] The impact of autophagy induction on cells is complex and depends on the affected target. As such, the magnitude of a phenotype may not be equally mirrored in the %-value of autophagy induction and vice versa. The dynamics of the induction may indicate the mode of activation: e.g. activation via phosphorylation or a signaling cascade may occur fast, while activation via transcription factors may take considerably longer. […] Of note, treatment concentrations may be sub-optimal for specific compounds, leading to false negative annotations.; settings: Culturing Media DMEM/F12 (1:1), 1 % Penicillin/Streptomycin, 10% Fetal bovin serum Add-On: No, Screening Media Control DMEM/F12 (1:1), Screening Media Samples DMEM/F12 (1:1)
U2OS [1] = assay: as §1; settings: Culturing Media DMEM, 1 % Penicillin/Streptomycin, 10% Fetal bovin serum Add-On: No, Screening Media Control DMEM, Screening Media Samples DMEM
U2OS [2] = assay: as §1; settings: Culturing Media DMEM, 1 % Penicillin/Streptomycin, 10% Fetal bovin serum Add-On: No, Screening Media Control DMEM, Screening Media Samples DMEM; remark: listed apart in the source
[3] = Compound Concentration 0.5 uM, Timepoint 12 hours
[4] = Compound Concentration 0.5 uM, Timepoint 24 hours
[5] = Compound Concentration 0.5 uM, Timepoint 36 hours
[6] = Compound Concentration 0.5 uM, Timepoint 60 hours
[7] = Compound Concentration 2 uM, Timepoint 12 hours
[8] = Compound Concentration 2 uM, Timepoint 24 hours
[9] = Compound Concentration 2 uM, Timepoint 36 hours
[10] = Compound Concentration 2 uM, Timepoint 60 hours
[11] = Compound Concentration 10 uM, Timepoint 12 hours
[12] = Compound Concentration 10 uM, Timepoint 24 hours
[13] = Compound Concentration 10 uM, Timepoint 36 hours
[14] = Compound Concentration 10 uM, Timepoint 60 hours

SMILES	autophagy induction (TERT-RPE1; [3]) [%]	autophagy induction (TERT-RPE1; [4]) [%]	autophagy induction (TERT-RPE1; [5]) [%]	autophagy induction (TERT-RPE1; [6]) [%]	autophagy induction (TERT-RPE1; [7]) [%]	autophagy induction (TERT-RPE1; [8]) [%]	autophagy induction (TERT-RPE1; [9]) [%]	autophagy induction (TERT-RPE1; [10]) [%]	autophagy induction (TERT-RPE1; [11]) [%]	autophagy induction (TERT-RPE1; [12]) [%]	autophagy induction (TERT-RPE1; [13]) [%]	autophagy induction (TERT-RPE1; [14]) [%]	autophagy induction (U2OS [1]; [3]) [%]	autophagy induction (U2OS [1]; [4]) [%]	autophagy induction (U2OS [1]; [5]) [%]	autophagy induction (U2OS [1]; [6]) [%]	autophagy induction (U2OS [1]; [7]) [%]	autophagy induction (U2OS [1]; [8]) [%]	autophagy induction (U2OS [1]; [9]) [%]	autophagy induction (U2OS [1]; [10]) [%]	further results
COc1ccc(S(=O)(=O)c2cc(OC)ccc2S(=O)(=O)c2ccc([C@H](C)NS(C)(=O)=O)cc2)cc1	-6.482	-9.039	-9.847	-11.3186	-6.676	-10.1921	-12.367	-10.4808	-5.338	-8.134	-7.872	-5.175	5.1145	1.212	0.9926	0.6082	2.687	1.009	1.125	0.5012	autophagy induction (U2OS [1]; [11]): -3.021%; autophagy induction (U2OS [1]; [12]): -0.6189%; autophagy induction (U2OS [1]; [13]): -0.5987%; autophagy induction (U2OS [1]; [14]): -0.1479%; autophagy induction (U2OS [2]; [3]): 5.054%; autophagy induction (U2OS [2]; [4]): -4.288%; autophagy induction (U2OS [2]; [5]): -4.858%; autophagy induction (U2OS [2]; [6]): -2.8349%; autophagy induction (U2OS [2]; [7]): 5.036%; autophagy induction (U2OS [2]; [8]): -1.126%; autophagy induction (U2OS [2]; [9]): 2.146%; autophagy induction (U2OS [2]; [10]): -5.198%; autophagy induction (U2OS [2]; [11]): 5.742%; autophagy induction (U2OS [2]; [12]): 6.2878%; autophagy induction (U2OS [2]; [13]): 4.231%; autophagy induction (U2OS [2]; [14]): -3.951%
O=C(O)C1CN(Cc2ccc(OCc3ccc(Cl)c(Cl)c3)cc2)C1	-8.997	-11.1742	-13.4476	-16.3767	-4.026	-8.149	-12.0341	-15.552	-3.6803	-2.7744	-2.708	-2.7926	-1.025	-0.5625	-1.224	-0.01663	2.871	0.8864	0.6277	0.8248	autophagy induction (U2OS [1]; [11]): 1.474%; autophagy induction (U2OS [1]; [12]): 3.015%; autophagy induction (U2OS [1]; [13]): 1.861%; autophagy induction (U2OS [1]; [14]): 1.49%; autophagy induction (U2OS [2]; [3]): -6.393%; autophagy induction (U2OS [2]; [4]): -7.561%; autophagy induction (U2OS [2]; [5]): -8.567%; autophagy induction (U2OS [2]; [6]): -6.096%; autophagy induction (U2OS [2]; [7]): 2.736%; autophagy induction (U2OS [2]; [8]): -0.6379%; autophagy induction (U2OS [2]; [9]): 3.003%; autophagy induction (U2OS [2]; [10]): 6.192%; autophagy induction (U2OS [2]; [11]): 4.494%; autophagy induction (U2OS [2]; [12]): -1.815%; autophagy induction (U2OS [2]; [13]): -1.999%; autophagy induction (U2OS [2]; [14]): -2.676%
O=C(Cc1ccccc1)Nc1nc2ccc(Cl)cc2c2nc(-c3ccco3)nn12	-7.39	-10.3716	-15.7815	-15.2628	-6.9816	-7.632	-7.871	-12.6626	-9.4005	10.615	24.2695	38.8225	-1.429	-4.076	-2.306	0.1335	-7.203	-1.219	-0.343	-0.2104	autophagy induction (U2OS [1]; [11]): -51.1859%; autophagy induction (U2OS [1]; [12]): -16.9004%; autophagy induction (U2OS [1]; [13]): -8.178%; autophagy induction (U2OS [1]; [14]): -3.011%; autophagy induction (U2OS [2]; [3]): 4.486%; autophagy induction (U2OS [2]; [4]): 1.051%; autophagy induction (U2OS [2]; [5]): 3.966%; autophagy induction (U2OS [2]; [6]): 7.125%; autophagy induction (U2OS [2]; [7]): -5.124%; autophagy induction (U2OS [2]; [8]): -1.574%; autophagy induction (U2OS [2]; [9]): -4.263%; autophagy induction (U2OS [2]; [10]): 4.935%; autophagy induction (U2OS [2]; [11]): -2.171%; autophagy induction (U2OS [2]; [12]): -3.2492%; autophagy induction (U2OS [2]; [13]): 0.6441%; autophagy induction (U2OS [2]; [14]): 10.7185%
